Structures are written as SMILES. pIC50: −log10 of the molar value. Read-outs that look alike come from different tables or passages of the source.

The target of one test is IKZF1 (Homo sapiens (Human), UniProt Q13422+Q96SW2). The experiment in a line: IKZF1 HiBit Assay (HEK293T Flp-in-HiBiT-IKZF1 stable cell line). The settings on record: for DC50: read-out: IKZF1 HiBit degradation DC50; for Dmax: HEK-293T, read-out: IKZF1 HiBit degradation Dmax. It is filed as cell-based. The gist of the method: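 HEK293T Flp-in cells with CRISPR-inserted N-terminal HiBiT tag treated 6 h with 11-point threefold dilutions (0.1% DMSO). Nano-Glo HiBiT lytic luminescence normalised to DMSO gave the 50%-degradation concentration; Dmax taken as the luminescence range from highest to lowest concentration.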
IKZF1, sequence (Q13422 whole entry): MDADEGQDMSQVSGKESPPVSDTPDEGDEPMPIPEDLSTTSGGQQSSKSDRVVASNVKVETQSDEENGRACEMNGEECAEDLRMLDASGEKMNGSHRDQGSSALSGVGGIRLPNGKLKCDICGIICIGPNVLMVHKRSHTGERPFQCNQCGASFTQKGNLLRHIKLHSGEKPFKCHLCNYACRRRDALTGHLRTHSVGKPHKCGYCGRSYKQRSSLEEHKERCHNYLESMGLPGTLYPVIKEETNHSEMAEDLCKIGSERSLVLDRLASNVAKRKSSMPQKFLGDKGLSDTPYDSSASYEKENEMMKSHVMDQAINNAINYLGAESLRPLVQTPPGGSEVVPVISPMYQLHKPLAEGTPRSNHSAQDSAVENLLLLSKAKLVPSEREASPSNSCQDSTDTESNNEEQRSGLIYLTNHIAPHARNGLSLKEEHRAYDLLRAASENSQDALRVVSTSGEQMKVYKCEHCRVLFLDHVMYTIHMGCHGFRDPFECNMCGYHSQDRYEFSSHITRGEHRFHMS
IKZF1, sequence (Q96SW2 whole entry): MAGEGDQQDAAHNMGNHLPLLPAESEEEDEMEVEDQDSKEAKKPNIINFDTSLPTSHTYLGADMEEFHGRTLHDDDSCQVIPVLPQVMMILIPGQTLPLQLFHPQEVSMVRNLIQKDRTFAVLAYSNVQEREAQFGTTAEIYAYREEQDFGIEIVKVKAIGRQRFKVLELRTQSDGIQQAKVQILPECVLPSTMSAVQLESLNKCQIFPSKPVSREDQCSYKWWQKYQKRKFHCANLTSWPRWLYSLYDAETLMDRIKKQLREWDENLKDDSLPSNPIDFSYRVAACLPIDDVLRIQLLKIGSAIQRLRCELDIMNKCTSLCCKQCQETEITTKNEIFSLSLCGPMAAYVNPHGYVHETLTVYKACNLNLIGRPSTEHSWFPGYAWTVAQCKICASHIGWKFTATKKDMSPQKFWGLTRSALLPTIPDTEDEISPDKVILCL
IKZF1, sequence (Q16531 whole entry partner): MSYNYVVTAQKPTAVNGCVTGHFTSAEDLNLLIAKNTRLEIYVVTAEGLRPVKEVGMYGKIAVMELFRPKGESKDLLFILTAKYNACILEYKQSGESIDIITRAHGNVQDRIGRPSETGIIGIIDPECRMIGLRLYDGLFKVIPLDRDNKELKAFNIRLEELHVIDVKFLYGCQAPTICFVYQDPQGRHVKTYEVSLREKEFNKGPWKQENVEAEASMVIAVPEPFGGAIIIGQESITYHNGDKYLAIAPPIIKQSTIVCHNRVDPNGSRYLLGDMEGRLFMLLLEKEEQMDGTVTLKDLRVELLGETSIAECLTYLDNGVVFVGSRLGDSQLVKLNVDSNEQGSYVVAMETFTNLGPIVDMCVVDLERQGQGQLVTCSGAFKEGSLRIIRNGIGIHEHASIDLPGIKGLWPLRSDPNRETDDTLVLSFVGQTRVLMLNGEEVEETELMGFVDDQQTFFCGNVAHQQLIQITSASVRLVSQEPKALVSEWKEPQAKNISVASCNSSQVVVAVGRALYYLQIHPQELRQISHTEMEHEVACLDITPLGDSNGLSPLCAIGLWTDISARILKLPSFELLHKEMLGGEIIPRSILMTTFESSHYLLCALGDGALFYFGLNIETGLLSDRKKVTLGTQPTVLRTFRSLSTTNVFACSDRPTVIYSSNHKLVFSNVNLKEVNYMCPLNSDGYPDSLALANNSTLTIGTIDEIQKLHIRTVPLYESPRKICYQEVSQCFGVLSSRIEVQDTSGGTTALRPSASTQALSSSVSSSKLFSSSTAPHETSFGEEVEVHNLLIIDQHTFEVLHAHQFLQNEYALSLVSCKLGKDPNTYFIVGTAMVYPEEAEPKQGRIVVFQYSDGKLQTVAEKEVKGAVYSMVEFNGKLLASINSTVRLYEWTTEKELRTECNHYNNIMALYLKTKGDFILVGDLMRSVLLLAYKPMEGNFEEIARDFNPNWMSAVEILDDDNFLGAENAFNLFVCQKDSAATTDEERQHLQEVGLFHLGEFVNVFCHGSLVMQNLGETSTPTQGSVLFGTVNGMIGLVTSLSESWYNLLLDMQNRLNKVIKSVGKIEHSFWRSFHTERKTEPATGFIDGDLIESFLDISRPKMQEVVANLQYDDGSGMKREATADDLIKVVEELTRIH
Background: The HiBiT peptide binds its large partner to form an active luciferase.

In test [1] the target is His tagged CRBN+DDB−DLS7+CXU4 (Homo sapiens (Human), UniProt Q96SW2). The test is described as follows: IC50 Measurements for Binding to CRBN/DDBI (HTRF). The settings on record: Cy5-labeled Thalidomide probe, one hour incubation. In general terms: TR-FRET usually uses a lanthanide donor and a delayed reading to cut background.
His tagged CRBN+DDB−DLS7+CXU4, sequence (Q96SW2 whole entry): as the sequence (Q96SW2 whole entry) above
His tagged CRBN+DDB−DLS7+CXU4, sequence (Q16531 whole entry partner): as the sequence (Q16531 whole entry partner) above
For test [2], the target named is T1, IKZF2 (Homo sapiens (Human), UniProt Q96SW2+Q9UKS7). The experiment in a line: IKZF2 FACS Assay (Jurkat cells). The format is cell-based. The settings on record: read-out: IKZF2 FACS degradation Dmax. The method, then: (§1) Jurkat cells (ATCC, Cat […]) were cultured in RPMI1640+10% FBS+1% P/S. Cells were treated at desired compound concentrations (0.05 to 10 μM) and DMSO as vehicle control for 24 hrs.
T1 sequence (Q9UKS7 whole entry): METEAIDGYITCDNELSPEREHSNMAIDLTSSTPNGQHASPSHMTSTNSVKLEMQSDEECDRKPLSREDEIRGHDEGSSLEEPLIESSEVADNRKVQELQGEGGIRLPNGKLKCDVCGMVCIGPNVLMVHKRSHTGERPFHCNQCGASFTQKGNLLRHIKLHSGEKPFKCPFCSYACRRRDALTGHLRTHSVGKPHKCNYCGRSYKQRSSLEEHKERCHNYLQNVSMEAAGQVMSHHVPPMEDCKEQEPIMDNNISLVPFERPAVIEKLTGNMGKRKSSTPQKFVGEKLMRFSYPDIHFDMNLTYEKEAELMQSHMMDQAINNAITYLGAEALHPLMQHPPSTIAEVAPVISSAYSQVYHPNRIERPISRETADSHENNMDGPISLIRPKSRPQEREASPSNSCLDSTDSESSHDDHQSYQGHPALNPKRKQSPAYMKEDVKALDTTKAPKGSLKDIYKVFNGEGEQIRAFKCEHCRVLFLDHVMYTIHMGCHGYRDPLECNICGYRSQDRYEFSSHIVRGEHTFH
T1 sequence (Q96SW2 whole entry): as the sequence (Q96SW2 whole entry) above
T1 sequence (Q16531 whole entry partner): as the sequence (Q16531 whole entry partner) above

For test [3], the target named is IKZF2 (Homo sapiens (Human), UniProt Q9UKS7). The experiment in a line: IKZF2 FACS Assay (Jurkat cells). The format is cell-based. The settings on record: Jurkat cells, 24 hrs; read-out: IKZF2 FACS degradation DC50. How it is done: as §1
IKZF2 (Homo sapiens (Human), UniProt Q9UKS7), sequence (Q9UKS7 whole entry): as the sequence (Q9UKS7 whole entry) above
IKZF2 (Homo sapiens (Human), UniProt Q9UKS7), sequence (Q96SW2 whole entry, further chain): as the sequence (Q96SW2 whole entry) above
IKZF2 (Homo sapiens (Human), UniProt Q9UKS7), sequence (Q16531 whole entry partner): as the sequence (Q16531 whole entry partner) above
In test [4] the target is T1, IKZF2. The experiment in a line: IKZF2 HiBit Assay (HEK293T Flp-in-HiBiT cells). It is filed as cell-based. The settings on record: for DC50: read-out: IKZF2 HiBit degradation DC50; for Dmax: HEK-293T, read-out: IKZF2 HiBit degradation Dmax. The gist of the method:
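HEK293T Flp-in cells carrying CRISPR-inserted N-terminal HiBiT tag at the endogenous IKZF2 locus were treated with an 11-point, 3-fold dilution from 1 mM (stock) for 6 hrs; final DMSO 0.1%. HiBiT luminescence was detected after lysis with LgBiT/substrate reagent. DMSO-normalized curves gave 50% degradation concentration and Dmax.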

Setting [5] is: HEK293T Flp-in-HiBiT-IKZF1 cells, 6 hrs.
Setting [6] is: HEK293T Flp-in-HiBiT cells, 6 hrs.

By DC50 is commonly meant the midpoint of the concentration-degradation curve. One may read the Dmax as the greatest extent of degradation seen. As usually defined, the pIC50 is −log10 of the IC50, conventionally taken in molar units. Higher therefore signals a low IC50. Turning to `Cn1cc(-c2cccc(CN3CCC4(CC3)COc3c4ccc4c3CN([C@@H]3CCC(=O)NC3=O)C4=O)c2)cn1` [Compound B14, (R)-3-(1′-(3-(1-methyl-1H-pyrazol-4-yl)benzyl)-6-oxo-6,8-dihydro-2H,7H-spiro[furo[2,3-e]isoindole-3,4′-piperidin]-7-yl)piperidine-2,6-dione], the results for the DC50 at IKZF1 (setting [5]), on IKZF2 [3] and on IKZF2 [4] (setting [6]) were greater than 1000 nM, greater than 10 nM and 1 to 10 nM, respectively. For the same compound, the maximal degradation (Dmax) was less than 20% on IKZF1, 40 to 60% on IKZF2 [2] (Jurkat) and greater than 80% at IKZF2 [4]. This compound also showed a negative logarithm of the IC50 (pIC50) in test [1] of 5.30 to 6.00.
As for `Cn1cc(-c2cccc(CN3CCC4(COc5c4ccc4c5CN(C5CCC(=O)NC5=O)C4=O)C(F)(F)C3)c2)cn1` (stereo not drawn) [Compound B26, 3-(3′,3′-difluoro-1′-(3-(1-methyl-1H-pyrazol-4-yl)benzyl)-6-oxo-6,8-dihydro-2H,7H-spiro[furo[2,3-e]isoindole-3,4′-piperidin]-7-yl)piperidine-2,6-dione], the 50% degradation concentration (DC50) is greater than 1000 nM at IKZF1 (setting [5]), less than 10 nM at IKZF2 [3] and 1 to 10 nM at IKZF2 [4] (setting [6]). Also, the Dmax was less than 20% on IKZF1 (setting [5]); greater than 60% at IKZF2 [2] (Jurkat cells, 24 hrs); greater than 80% on IKZF2 [4] (setting [6]).
With `N#Cc1ccc(-n2cc(CN3CCC4(COc5c4ccc4c5CN([C@H]5CCC(=O)NC5=O)C4=O)C(F)(F)C3)cn2)cc1` (stereo partly drawn) [Compound B27, 4-(4-((7-((S)-2,6-dioxopiperidin-3-yl)-3′,3′-difluoro-6-oxo-7,8-dihydro-2H,6H-spiro[furo[2,3-e]isoindole-3,4′-piperidin]-1′-yl)methyl)-1H-pyrazol-1-yl)benzonitrile], the DC50 on IKZF1 (setting [5]) was greater than 1000 nM; at IKZF2 [3] it was greater than 10 nM; at IKZF2 [4] (setting [6]), 1 to 10 nM. Moreover, the maximal degradation (Dmax) on IKZF1 (setting [5]) is less than 20%; at IKZF2 [2] (Jurkat cells, 24 hrs) it was less than 40%; at IKZF2 [4] (setting [6]), 60 to 80%.
For the compound `O=C1CC[C@H](N2Cc3c(ccc4c3OCC43CCN(Cc4cccc(-c5cnn(C6COC6)c5)c4)CC3(F)F)C2=O)C(=O)N1` (stereo partly drawn) [Compound B32, (3S)-3-(3′,3′-difluoro-1′-(3-(1-(oxetan-3-yl)-1H-pyrazol-4-yl)benzyl)-6-oxo-6,8-dihydro-2H,7H-spiro[furo[2,3-e]isoindole-3,4′-piperidin]-7-yl)piperidine-2,6-dione], the DC50 on IKZF1 (setting [5]) is greater than 1000 nM; on IKZF2 [3], less than 10 nM; at IKZF2 [4] (setting [6]), less than 1 nM. Moreover, the Dmax on IKZF1 (setting [5]) is less than 20%; on IKZF2 [2] (Jurkat cells, 24 hrs) it was 40 to 60%; at IKZF2 [4] (setting [6]), 60 to 80%. In test [1], this compound had a pIC50 of 6.30 to 7.00.
For `O=C1CC[C@H](N2Cc3c(ccc4c3OCC43CCN(Cc4cnn(CC5CCOCC5)c4)CC3(F)F)C2=O)C(=O)N1` (stereo partly drawn) [Compound B46, (3S)-3-(3′,3′-difluoro-6-oxo-1′-((1-((tetrahydro-2H-pyran-4-yl)methyl)-1H-pyrazol-4-yl)methyl)-6,8-dihydro-2H,7H-spiro[furo[2,3-e]isoindole-3,4′-piperidin]-7-yl)piperidine-2,6-dione], the DC50 at IKZF1 (setting [5]) was greater than 1000 nM; at IKZF2 [3], less than 10 nM; on IKZF2 [4] (setting [6]) it was 1 to 10 nM. Also, the Dmax was less than 20% on IKZF1 (setting [5]); 40 to 60% at IKZF2 [2] (Jurkat cells, 24 hrs); 60 to 80% at IKZF2 [4] (setting [6]).
Regarding `Cn1cc(-c2cccc(CN3CC[C@]4(COc5c4ccc4c5CN([C@H]5CCC(=O)NC5=O)C4=O)C(F)(F)C3)c2)cn1` [Compound B51, (S)-3-((S)-3′,3′-difluoro-1′-(3-(1-methyl-1H-pyrazol-4-yl)benzyl)-6-oxo-6,8-dihydro-2H,7H-spiro[furo[2,3-e]isoindole-3,4′-piperidin]-7-yl) piperidine-2,6-dione], the DC50 on IKZF1 (setting [5]) was greater than 1000 nM; at IKZF2 [3] it was less than 10 nM; at IKZF2 [4] (setting [6]), less than 1 nM. The Dmax on IKZF1 (setting [5]) was less than 20%; at IKZF2 [2] (Jurkat cells, 24 hrs), greater than 60%; on IKZF2 [4] (setting [6]), 60 to 80%. The compound also gave a pIC50 in test [1] greater than 7.00.
As for `O=C1CC[C@H](N2Cc3c(ccc4c3OC[C@]43CCN(Cc4cccc(-c5cnn(C6COC6)c5)c4)CC3(F)F)C2=O)C(=O)N1` [Compound B53, (S)-3-((S)-3′,3′-difluoro-1′-(3-(1-(oxetan-3-yl)-1H-pyrazol-4-yl)benzyl)-6-oxo-6,8-dihydro-2H,7H-spiro[furo[2,3-e]isoindole-3,4′-piperidin]-7-yl)piperidine-2,6-dione], the DC50 at IKZF1 (setting [5]) was greater than 1000 nM; at IKZF2 [3], less than 10 nM; at IKZF2 [4] (setting [6]), less than 1 nM. Also, the Dmax on IKZF1 (setting [5]) was less than 20%; on IKZF2 [2] (Jurkat cells, 24 hrs) it was 40 to 60%; on IKZF2 [4] (setting [6]) it was greater than 80%.
Turning to `Cn1cc(-c2cccc(CN3CCC4(CC3)COc3c5c(cc(F)c34)C(=O)N([C@H]3CCC(=O)NC3=O)C5)c2)cn1` [Compound B55, (S)-3-(4-fluoro-1′-(3-(1-methyl-1H-pyrazol-4-yl)benzyl)-6-oxo-6,8-dihydro-2H,7H-spiro[furo[2,3-e]isoindole-3,4′-piperidin]-7-yl)piperidine-2,6-dione], the DC50 is greater than 1000 nM on IKZF1 (setting [5]), less than 10 nM on IKZF2 [3] and less than 1 nM at IKZF2 [4] (setting [6]). Also, the greatest degradation seen (Dmax) on IKZF1 (setting [5]) was less than 20%; at IKZF2 [2] (Jurkat cells, 24 hrs), 40 to 60%; at IKZF2 [4] (setting [6]), greater than 80%.

(Values after patent US20250215012A1, “IKZF2 DEGRADERS AND USES THEREOF” (REGENTS OF THE UNIVERSITY OF MICHIGAN, priority 2022, published 2025).)
